SMILES | melting point
COc1ccc(Nc2nc(Cl)nc(NC3CC3)n2)cc1Cl | 172 °C
CC(=O)c1ccc2c(c1)Sc1ccccc1O2 | 112 °C
N#CCN1CCC(OC(c2ccccc2)c2ccccc2)CC1 | 78 to 80 °C
Cc1c(F)c(F)c(F)c2c1c(=O)c(C(=O)O)cn2-c1ccc(F)cc1F | 221 to 222 °C
Cc1c(Cl)cccc1S(=O)(=O)Nc1ccc2nccnc2c1 | 166 to 167 °C
COc1ccc(-c2[nH]nc3c2C(=O)c2c(NC(=O)CN4CCN(c5ccccn5)CC4)cccc2-3)cc1 | > 300 °C
CCOC(=O)C(NC(=O)CO)C(=O)OCC | 74 to 74.5 °C
Brc1ccc(N2CCN(CCCc3[nH]nc4c3CCCC4)CC2)cc1 | 145 to 147 °C
COC1OC(=O)c2c(O)cccc21 (stereo not given) | 77 to 79 °C
CCCCCCCCCc1ccc(C(Sc2cccc(NC(=O)CC(=O)O)c2)C(=O)CCCC(=O)O)cc1 (stereo not given) | 88 to 91 °C
CN(CCCCOc1ccc(CC2SC(=O)NC2=O)cc1)c1nc2ccccc2o1 (stereo not given) | 112 °C
CC(C)NC(=O)OCC(=O)c1ccc(C2CCCCC2)cc1 | 111 to 112 °C
Cc1nc(-c2nc(C)c(-c3ccnc(Nc4cc(Cl)c(N5CCOCC5)c(Cl)c4)n3)s2)cs1 | > 300 °C
CCn1c(=O)c2c(nc(/C=C/c3cc(C)c(OC)cc3C)n2C)n(CC)c1=O | 235 to 236 °C
COc1ccc(CCN2CCC(NC(=O)c3ccccc3)CC2)cc1OC | 194 to 195 °C
CCOc1cc2ncc(C#N)c(Nc3ccc(OCc4ccccc4)c(Cl)c3)c2cc1NC(=O)CC(CN1CCCC1)N1CCCC1 (stereo not given) | 85 to 87 °C
CCNC(=O)Nc1nc2cc(-c3cccnc3)cc(N3CCOCC3)n2n1 | 298 to 300 °C
CCN(CC)CCCNc1nc(Cl)nc(NCCCN(CC)CC)n1 | 119 °C
Cn1cc(C(=O)NCc2ccc(F)cc2)c(=O)c2cc(CN3CCOCC3)sc21 | 214 to 216 °C
NC(=S)NN=C(CCCCl)c1ccc(Cl)cc1 | 125 to 126 °C
COc1c(-c2ccc3cc(NS(C)(=O)=O)ccc3c2)cc(-n2ccc(=O)[nH]c2=O)cc1C(F)(F)C(F)(F)F | 162 to 165 °C
COC(=O)[C@@H]1CCCN1C(=O)C[C@H]1CCc2ccccc2C1 | 62 to 64 °C
COc1cccc(-c2ccc3c(c2)C(C)(C(F)(F)F)OC(=O)N3)c1 (stereo not given) | 178 to 179 °C
O=C(O)c1ccc(OC2CC2)cc1 | 153 to 155 °C
C[C@@H](S[C@H]1CO[C@H](c2ccc(C(=O)Nc3ccc(C#N)c4ccccc34)cc2)OC1)[C@](O)(Cn1cncn1)c1ccc(F)cc1F | 109 °C

SMILES | melting point
O=C1CCCC2=C1C(c1cccc([N+](=O)[O-])c1)C=C(C(F)(F)F)N2 (stereo not given) | 215 to 216 °C
C=CCCc1sc(-c2nccs2)c2c1C(=O)CC(C)(C)C2 | 62 to 65 °C
O=C(Oc1cccc(Cl)c1)c1ncn2c1[C@@H]1CCCN1C(=O)c1c(Cl)cccc1-2 | 194 to 195 °C
C=C(C)CN1C[C@H](C)Nc2c(cc(Cl)cc2[N+](=O)[O-])C1=O | 66.5 °C
COc1ccc(C=CC(=O)O)cc1-c1cc2c(cc1OCCCCCCCO)C(C)(C)CCC2(C)C | 105 to 107 °C
CC(=O)C(=CN(C)C)c1ccccc1 | 66 °C
Oc1ccc2c(Cl)cc(-c3ccccc3)nc2c1 | 190 to 192 °C
CCOC(=O)c1ccc2nc3ccsc3c(=O)n2c1 | 188 to 190 °C
CC1(C)OC2C(Br)=CC(CC(N)=O)C(Br)C2O1 (stereo not given) | 181 °C
CC(=O)c1nc2cc(Cl)c(OCC(F)(F)F)cc2cc1O | 104 to 105 °C
CN(O)C(=O)NCCc1cc2ccccc2o1 | 120 °C
CC(C)CCC(C)Oc1c(-c2ccc(S(C)(=O)=O)cc2)cnn(-c2ccc(F)cc2)c1=O (stereo not given) | 102 to 103 °C
CC1=C(C(=O)OCCCl)C(c2cccc3c(=O)c(C)c(-c4ccccc4)oc23)C(C(=O)OC(C)C)=C(C)N1 (stereo not given) | 235 to 237 °C
c1ccc(CC[C@H]2CNCCN2)cc1 | 114 to 115 °C
O=C(NCCNCc1cc2cc(OCc3ccccc3)ccc2o1)C12CC3CC(CC(C3)C1)C2 | 169 to 170 °C
COC(=O)c1cc(CC#N)cc(CC#N)c1 | 90 to 92 °C
COc1ccc(-c2nc(C(=O)N(C)C)c3c4ccc(Cl)cc4n(C)c3n2)cn1 | 267 to 268 °C
CC=Nc1cc(CO)cc(Nc2c3ccccc3nc3ccccc23)c1 | 158 to 161 °C
COc1cccc(CNc2n[nH]c3ncnc(Nc4cccc(Cl)c4)c23)c1 | 192 to 193 °C
CCOP(=O)(OCC)c1c(-c2c(OC)ccc3ccccc23)cc2c(c1-c1ccccc1)COC2 | 123 to 125 °C
Cc1ccc(C(NC(=O)[C@H](CCC(=O)O)NC(=O)c2cc3ccccc3[nH]2)c2ccc(C)cc2)cc1 | > 260 °C
CC(C)c1ccc(S(=O)(=O)c2ccc(F)cc2)c(C(C)C)c1 | 75 to 80 °C
CC12CC(O)C3(F)C(CCC4=CC(=O)C=CC43C)C1CC=C2SCOC(=O)c1ccccc1 (stereo not given) | 220 to 222 °C
CCCOC(C)c1ccc(-c2ccc(C(=O)O)cc2)cc1 (single isomer, unassigned; (+)) | 172 °C
CC(C)[C@H](NC(=O)OCc1ccccc1)C(=O)N[C@@H](Cc1ccccc1)C(=O)CSCc1ccco1 | 122 to 125 °C

SMILES | melting point
CCOC(=O)c1c(OCC)cc(C=O)cc1OCC | 117 to 119 °C
COc1cc(OCC(=O)O)c2c3c(n(Cc4ccccc4)c2c1)CCCC3C(N)=O (stereo not given) | 251 to 254 °C
O=C(O)CCCCCOc1cc(-c2ccccc2)cc(-c2ccccc2)n1 | 87 to 88 °C
CCCCCS(=O)(=O)NC(=O)c1ccc2sc(C)c(Cc3ccc(Cl)c(Cl)c3)c2c1 | 159 to 160 °C
CCOC(=O)c1ccc(C#CC(=O)Nc2ccccc2)cc1 | 114 to 115 °C
CC(C)(O)c1ccc(CN)cc1 | 62 to 64 °C
CN(CCc1ccc([N+](=O)[O-])cc1)C1Cc2ccc([N+](=O)[O-])cc2C1 (stereo not given) | 138 to 141 °C
O=C(O)c1ccc(C2OC2C(=O)c2ccccc2)cc1 (stereo not given) | 170 to 172 °C
O=C(NCCCCCCCNC(=O)c1ccc2c(c1)OCO2)c1ccc2c(c1)OCO2 | 151 to 152 °C
COc1ccc2c(CCCC(=O)O)nnc(-c3nccs3)c2c1 | 218 to 220 °C
COC(=O)c1cc(C)c(OCCNC(=O)C2Cc3ccccc3N2S(=O)(=O)c2ccc(-c3ccc(F)cc3)cc2)c(C)c1 (stereo not given) | 91 °C
Nc1nc2ccccc2c2c1nc1n2C(CCl)COC1 (stereo not given) | 230 to 232 °C
CC(C)(C)OC(=O)NN=C1C2CC3CC(C2)CC1C3 | 175 to 177 °C
O=C(c1c(Cl)cccc1Cl)P(=O)(c1ccccc1)c1ccccc1 | 156 to 158 °C
C[C@H](NC(=O)C1(C)Sc2ccccc2NC1=O)C(=O)N[C@H](CCC(=O)O)C(N)=O (stereo not given in full) | 124 to 125 °C
Cc1ccnc(SCc2nc3ccc(CC(=O)O)cc3[nH]2)c1 | 121 to 124 °C
CCOC(=O)c1ccccc1-c1ccc2nc[nH]c(=O)c2c1 | 151 to 158 °C
CS(=O)(=O)c1ccc(-n2nc(C(F)(F)F)cc2-c2ccc(-c3cocn3)cc2)cc1 | 175 to 177 °C
CN1C(=O)[C@H](NC(=O)CCc2ccccc2)N=C(c2ccccc2)c2ccccc21 | 179 °C
Cc1c(-c2ncncc2Cl)ssc1=S | 100 °C
COCc1ccn2nc(SCc3ccccc3)nc2n1 | 92 °C
Cc1cc(COc2ccc(C(=O)NC[C@@H](C(=O)NO)N3CCN(Cc4ccc(F)cc4)CC3)cc2)c2ccccc2n1 | 167 °C
Fc1ccccc1C1=NCC(=S)Nc2ccc(I)cc21 | 242 to 244 °C
O=C(Nc1cccnc1O)C1CCCC1 | 242 to 243 °C
O=C(CCC(=O)N1CCC[C@H]1C(=O)O)c1ccc(Br)s1 | 166 to 168 °C

SMILES | melting point
CC(C)(Oc1ccc(CCC(=O)c2ccc(-c3ccc(C(F)(F)F)cc3)s2)cc1F)C(=O)O | 150 to 151 °C
CN1CCC(=C2c3cc(Cl)ccc3CCn3ncnc32)CC1 | 176 °C
CC(=O)OC(C)C=C(C)c1ccc(-c2ccccc2)cc1 (stereo not given) | 62 to 64 °C
CC(=O)OCC(C)(C)c1cc(OS(C)(=O)=O)ccc1OC(C)=O | 49 to 51 °C
CCCCCCCCCCOc1cc(OCCCCCCCCCC)cc(N2CC(=O)OC(=O)C2)c1 | 62 °C
CSc1nc(-c2ccncc2)n(-c2ccc(C)cc2)c(=O)c1C#N | > 250 °C
COc1ccc(C(C)(c2ccc(OC)cc2)c2ccc(OC)cc2)cc1 | 160 °C
O=C(COc1ccc(C(=O)OCc2ccccc2)cc1)NN=C1C(=O)Nc2ccc(I)cc21 | 221 °C
COC(=O)Cc1ccc2cc(OC)ncc2c1 | 49.5 to 51 °C
Oc1cc(Cl)nnc1-c1ccc(F)cc1 | 254 to 260 °C
CN1C(=O)N(CC2=C(CC3CCCC3)C(=O)OC2)C(=O)C1(C)C | 77 to 79 °C
CC1=C(O)C(=O)C(C)C1 (stereo not given) | 92 to 93 °C
COc1ccc(OC)c(NC(=O)c2cc(Br)ccc2O)c1 | 207 to 209 °C
CCCc1nn(-c2ccc(C(F)(F)F)cn2)cc1CCCOc1c(CC)cnn1CC(=O)O | 135 to 136 °C
CCOC(=O)C1CCN(C(=O)CN2CCN(c3ccncc3)CC2)CC1 | 102 to 104 °C
Cc1c(C(=O)O)nc2c(cc(C)c3nc(C(=O)O)c(C)c(O)c32)c1O | 205 to 206 °C
CNCCN1CCn2c1nc1ccccc12 | 60 to 63 °C
Cc1cccc(-c2ccnc3c(C#N)cnn23)c1 | 161 to 162 °C
CCc1nc2cc(C(F)(F)F)c(Cl)cc2n1-c1ccc(CCOC(=O)NS(=O)(=O)c2ccccn2)cc1 | 127 to 130 °C
N#Cc1nn(-c2c(Cl)cc(-c3ccc(C(F)(F)F)cc3)cc2Cl)c(N)c1SC(F)(F)F | 181 to 184 °C
COc1ccc2c(c1)c(CCO)c(C)n2Cc1ccc(Cl)cc1 | 113 to 115 °C
CN1CCN(C2CC(=O)c3ccc(F)cc32)CC1 (stereo not given) | 102 to 103 °C
CCN(CC)CC=CC(=O)Nc1cc2c(Nc3ccc(F)c(Cl)c3)ncnc2cc1OC1CCC1 | 111 °C
Cn1c(-c2c(F)cccc2F)nn(-c2ccccc2C(F)(F)F)c1=O | 98 to 99 °C
COc1ccc(N2CCN(c3c(C)c(C)c4c(c3C)C(c3cccc(C)c3)C(C)(C)O4)CC2)cc1 (stereo not given) | 159 to 161 °C
